Reference: article PMC11266932, “Enhanced absorption of prenylated cinnamic acid derivatives from Brazilian green propolis by turmeric in humans and rats” (Food Science & Nutrition, 2024)
Read-outs that look alike come from different tables or passages of the source.

Key:
[1] = Clinical trial: plasma concentration and AUC of cinnamic acid derivatives after ingestion of BGP alone or BGP plus herbal extract mixture; type: in vivo; details: humans, BGP and herbal extracts co-administered; for fold increase of AUC versus BGP administered alone: 0–24 h; for AUC: plasma 0–24 h, after enzymatic deconjugation, mean ± SD, n = 6
Description: Six volunteers (three males and three females) completely understood the study protocol and consented to participate in the research. The following exclusion criteria were used for shortlisting participants: past or present medical history (asthma, significant allergies, heart, liver, kidney, and urinary tract disease); prescribed medication; pregnancy; smoking (>20 cigarettes/day); alcohol consumption (>500 mL/day of beer); use of dietary supplements and healthy foods; and participation in other clinical trials. The participants were instructed to refrain from consuming propolis and propolis‐containing foods and beverages during the study period and 1 week prior to the start of the study. After a 12‐h fast, the participants were given a test food comprising the encapsulated BGP powder or a mixture of the BGP powder and herbal extracts in two experimental periods separated by 1 week. […] The collected samples were centrifuged at 1500 g for 3 min at 23 ± 2°C to separate the plasma, which was subsequently preserved at −80°C until further sample preparation.
Briefly, 50 μL of plasma was treated with a sulfatase/β‐glucuronidase solution (sulfatase 15 units/sample) in 100 mM sodium acetate and 5 mM ascorbate at 37°C for 1 h. Following the incubation, 850 μL of methanol was added to the samples to stop the deconjugation reaction, after which centrifugation was performed at 2000 g for 10 min at 23 ± 2°C. The supernatant was evaporated under nitrogen gas and then reconstituted in a fixed volume of methanol. The samples were filtered through a 0.22 μm PTFE membrane and then analyzed by LC–MS/MS.
Briefly, 5 μL of the sample was injected into a reversed‐phase column (Acquity UPLC BEH C18, 2.1 × 100 mm, ID. 1.7 μm; Waters, Milford, MA, USA) held at 30°C. The elution was performed using solvent A (0.1% formic acid) and solvent B (acetonitrile) at a flow rate of 0.3 mL/min. The gradient profiles were as follows: 5% B (0–2 min), 5–95% B (2–22 min), 95% B (22–25 min), and 5% B (25–30 min). Tandem mass spectrometry (MS/MS) was conducted using an ion trap mass spectrometer with a heated electrospray ion source (HESI) in both positive and negative ionization modes (scan range m/z 70–1000). […] External standard curves for cinnamic acid derivatives were generated using eight concentrations of authentic standard solutions (1, 5, 10, 50, 100, 250, 500, and 1000 ng/mL).
Quantification of cinnamic acid derivatives in the plasma was performed using the Trace Finder software version 4.1 (Thermo Scientific). The plasma concentration versus time data for the analytes obtained from each human and rat were entered into a Microsoft Excel spreadsheet. The area under the plasma concentration–time curve (AUC) was calculated using the linear trapezoidal rule, extending to the last sampling point.

[2] = biological target: T1, multidrug resistance 1 (MDR1), P‐gp (Homo sapiens, UniProt P08183); assay: Bidirectional transport assay across MDCK II-MDR1 cell monolayer; type: in vitro ADME; details: for Net flux ratio: ER of MDCK II‐MDR1 divided by ER of parent MDCK II, >2 = transporter-mediated efflux
T1 construct: host or cells: MDCK II (Madin-Darby canine kidney) cells overexpressing MDR1
Description: The Madin‐Darby canine kidney (MDCK II) cell line and MDCK II cells overexpressing multidrug resistance 1 (MDR1) or breast cancer resistance protein (BCRP) were purchased from the Netherlands Cancer Institute (Amsterdam, Netherlands) and SOLVO Biotechnology (Szeged, Hungary), respectively. The cell lines were routinely cultured in Dulbecco's modified Eagle's medium (DMEM) containing 10% fetal bovine serum and 1% penicillin/streptomycin at 37°C in 5% CO2. All cells were seeded in a feeder tray at a density of 3–6 × 10^4 cells/well and grown for 3–4 days. On the day of the transport study, cell monolayers were washed with Hanks' balanced salt solution (HBSS) buffer containing 0.1% BSA (pH 7.4) and incubated at 37°C for 20 min. Artepillin C and drupanin dissolved in DMSO (10 mM) were added to the transport buffer (HBSS containing 10 mM HEPES, 0.2% glucose, 0.1% BSA, pH 7.4) to a final concentration of 10 μM and then loaded into the apical or basolateral chamber. After 120 min of incubation, 150 μL of the aliquots were collected from the donor and receiver chambers and mixed with an equal volume of 50% methanol. After centrifugation at 3000 rpm for 10 min at 4°C, the supernatants were filtered and subjected to LC–MS/MS analysis.
The in vitro samples were analyzed using HPLC (LC‐20A, Shimadzu, Kyoto, Japan) with a reversed‐phase column (Inertsil ODS‐3, 2.1 × 33 mm, ID. 3 μm, GL Sciences, Tokyo, Japan) held at 40°C. The mobile solvents used were water with 10 mM ammonium acetate (pH 4.0, A) and methanol (B) pumped at a flow rate of 0.4 mL/min. The following gradient was employed: 10%–90% B (0–0.5 min), 90% B (0.5–2.5 min), and 10% B (2.5–4 min). The eluent was monitored using a triple quadrupole mass spectrometer (API 4000, AB Sciex, Framingham, MA, USA) incorporating an electrospray ion source (ESI) operating in the multiple reaction monitoring mode. The ESI source was operated in negative ionization mode at 600°C with a spray voltage of −4.5 kV. The curtain gas (nitrogen), collision gas (nitrogen), nebulizer gas (whole air), and drying gas (whole air) were set at 40, 5, 50, and 70 psi, respectively. […] Artepillin C and drupanin were diluted in 50% methanol to concentrations of 1.6, 3.2, 8, 40, 200, 1000, and 2000 nM and were used as external standards. Sulfaphenazole (0.2 μM) was used as an internal standard.
The apparent permeability coefficients (Papp) for both directions, from the apical side to the basolateral side (A to B) and from the basolateral side to the apical side (B to A) in the cell monolayer, were calculated using the following equation: (1) Papp=dQ/dt/A×C0 where dQ/dt is the permeation rate (nmol/s), A is the membrane area (cm^2), and C0 is the initial concentration of the compound in the donor compartment (nM). The efflux ratios (ER) in the B‐to‐A and A‐to‐B directions were determined using the following equation: (2) ER=PappBtoA/PappAtoB
Net flux ratios were calculated by dividing the ER obtained from MDCK II‐MDR1 (or BCRP) cells by that obtained from the parent MDCK II cells.

[3] = 10 μM, 120 min, mean ± SE, n = 2

Structure (SMILES)	fold increase of AUC versus BGP administered alone [1]	AUC [1]	Papp MDCK II‐MDR1 A to B [2, 3]	Papp MDCK II‐MDR1 B to A [2, 3]	Flux ratio (MDCK II‐MDR1) (efflux ratio, ER) ([2]; 10 μM, Papp B to A / Papp A to B)	Net flux ratio [2]	AUC ([1]; both sexes, human, oral, read-out: AUC)
CC(C)=CCc1cc(/C=C/C(=O)O)cc(CC=C(C)C)c1O [artepillin C]	1.7 fold	312.9 ± 91.4 ng·h/mL	13.3 ± 0.7 10^−6 cm/s	11.4 ± 0.8 10^−6 cm/s	0.9	1.1	–
CC(C)=CCc1cc(/C=C/C(=O)O)ccc1O [drupanin]	1.5 fold	–	–	–	–	0.9	446 ± 144 ng·h/mL
